# Reference: patent US20260284019A1, “CARBOXAMIDE COMPOUNDS AS SUMO ACTIVATING COMPOUNDS FOR TREATMENT OF CARDIOVASCULAR DISEASES” (NOVOHEART INTERNATIONAL LIMITED, priority 2023, published 2026)
# “Also recorded” adds a separate entry of the source.
# Key:
# SUMO E1 ligase protein = biological target: T1, SUMO E1 ligase protein (Homo sapiens, UniProt Q9UBE0+Q9UBT2); assay: In vitro SUMO E1 ATP hydrolysis assay for SUMO E1 ligase activity (AMP produced, luciferase luminescence); format: biochemical; details: racemic mixtures; for SUMO E1 activity (luminescence), ranking among the 11 compounds: 1 μM concentration; for dose-dependent effect in SUMO E1 assays compared with control compound N106: luminescence, FIG. 4B
# T1 sequence (Q9UBE0 1-346): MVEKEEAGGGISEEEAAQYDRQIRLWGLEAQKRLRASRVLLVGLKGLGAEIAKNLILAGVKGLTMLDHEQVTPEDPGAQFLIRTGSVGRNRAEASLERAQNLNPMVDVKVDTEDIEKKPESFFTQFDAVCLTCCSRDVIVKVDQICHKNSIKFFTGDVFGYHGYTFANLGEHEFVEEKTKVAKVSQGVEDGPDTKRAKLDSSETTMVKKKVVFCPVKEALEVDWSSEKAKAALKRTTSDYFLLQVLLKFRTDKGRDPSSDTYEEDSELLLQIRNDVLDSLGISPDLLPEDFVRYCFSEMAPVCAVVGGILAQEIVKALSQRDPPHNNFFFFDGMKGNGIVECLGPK
# T1 sequence (Q9UBT2 1-640): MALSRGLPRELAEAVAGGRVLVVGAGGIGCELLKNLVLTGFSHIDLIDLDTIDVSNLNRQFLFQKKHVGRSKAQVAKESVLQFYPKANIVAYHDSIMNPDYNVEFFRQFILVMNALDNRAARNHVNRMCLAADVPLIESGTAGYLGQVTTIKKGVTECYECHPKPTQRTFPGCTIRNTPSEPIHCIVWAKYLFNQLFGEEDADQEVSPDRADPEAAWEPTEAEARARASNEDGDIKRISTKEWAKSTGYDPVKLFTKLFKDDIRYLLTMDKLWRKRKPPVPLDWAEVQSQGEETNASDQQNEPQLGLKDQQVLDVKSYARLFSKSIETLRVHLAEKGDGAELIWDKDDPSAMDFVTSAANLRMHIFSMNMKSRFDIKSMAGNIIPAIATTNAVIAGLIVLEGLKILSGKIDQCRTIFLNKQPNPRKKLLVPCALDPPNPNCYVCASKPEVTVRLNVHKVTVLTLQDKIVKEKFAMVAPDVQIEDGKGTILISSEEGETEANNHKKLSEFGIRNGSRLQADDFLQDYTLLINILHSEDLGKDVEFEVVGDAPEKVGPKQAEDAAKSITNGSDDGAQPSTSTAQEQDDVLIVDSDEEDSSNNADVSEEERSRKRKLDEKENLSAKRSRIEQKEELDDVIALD
# Protocol: (§1) To investigate the effects of carboxamide compounds as SUMOylation activators, the compounds were subjected to an ATP-based assay of SUMO E1 ligase activity. The racemic mixture of each compound was first tested with the SUMO E1 ligase assay to test for SUMO activation activity. Compounds with no SUMO E1 ligase activity were excluded. For compounds with recorded SUMO E1 ligase activity, their four pure stereoisomers were tested for SUMO E1 ligase activity by measuring the adenosine monophosphate (AMP) produced from the E1 ligase reaction as described below. Each pure stereoisomer was also subjected to functional analysis in engineered cardiac tissues (FIG. 3A). The pure stereoisomers of compounds with SUMO E1 ligase activity were administered to human ventricular cardiac tissue strips that had been subjected to a maturation protocol (see below). […] Stereoisomers that could induce SERCA2a SUMOylation were further tested for their inotropic effects, in hvCTS models of cardiomyopathy and heart failure, by fabrication of hvCTS with cardiomyocytes derived from human induced pluripotent stem cells (i.e., hiPSCs) of patients with cardiomyopathy.
# Stereoisomers of the test compounds were incubated with SUMO E1 ligase protein and ATP. E1 ligase activation by the test compound was determined by measuring the AMP produced during the enzymatic reaction after removal of the remaining ATP by ATP adenyl cyclase and converting AMP to ADP by polyphosphate-AMP phosphotransferase. The converted ADP was further converted to ATP using […] and detected through luciferase reaction.
# [1] = system: human ventricular cardiac tissue strips (hvCTS); assay: Contractility of matured human ventricular cardiac tissue strips (hvCTS), twitch force from post deflection; format: cell-based; details: for effect on developed force: matured hvCTS with positive force frequency relationship, day 24; for effect on developed force / effect on relaxation time: 1.5 Hz, 10 minutes after each dose
# Description: FIG. 5 discloses the dose-dependent effects of stereoisomers of Compounds 6 on developed force in human cardiac tissue strips that were subjected to maturation protocol (see description below in the section entitled “Maturation of hvCTS”) with maturation media and electrical stimulation of 0.5 Hz from day 7-10, 1.0 Hz from day 10-13, 1.5 Hz from day 13-15, 2.0 Hz from day 16-19, 2.5 Hz from day 19-22 and 3.0 from day 22-24. Contractile data were collected at day 24 post-hvCTS fabrication. Developed forces were measured at 1.5 Hz, 10 minutes after administration of each dose of each stereoisomer. Only hvCTSs with positive force frequency relationships (+FFRs) were tested.
# Contractile data were collected at day 24 post-hvCTS fabrication. Developed forces were measured at 1.5 Hz, 10 minutes after administration of each dose of the stereoisomer. Only hvCTSs with positive force frequency relationships (+FFRs) were tested.
# as §1
# The effects of compounds on cardiac muscle function as evaluated by the Novoheart hvCTS assay are derived from tracings of twitch force versus time. The twitch force may be calculated from measurements of end-post deflection based on a published beam-bending equation as previously described.^29, 30 The twitch force tracings are then analyzed from each “heartbeat” of the tissue, and averaged over multiple beats to extract metrics related to the beat rate frequency and beat rate variability, the passive and active tissue forces, and the contraction and relaxation kinetics, as detailed previously in the field^29-32, and briefly described as follows:
# For each beat, the “passive (or diastolic) force” is the minimum value of the twitch force; the “active (or systolic) force” is the maximum value of the twitch force; and the “contractile (or developed) force” is the difference between the systolic and diastolic forces.
# “Contractile kinetics”, in some aspects, are analyzed by examining the twitch force tracing during the increase from the diastolic minimum to the systolic maximum portion of the curve, and these can include the duration of rise time from diastolic to systolic force and related metrics (e.g. duration of rise time from 5% maximum to 95% maximum force, and the like), the area under the curve of rise time from minimum to maximum force, the maximum rate of change of force versus time during contraction (max+dF/dt), and other related metrics. […]
# [2] = cited from earlier work
structure (smiles),measurement,setting,value
"CC(NC(=O)C1CC(=O)N(c2ccc(C(=O)c3ccccc3)cc2)C1)c1cnn2ccccc12 (mixture of isomers) [Compound 6, 1-(4-benzoylphenyl)-5-oxo-N-(1-(pyrazolo[1,5-a]pyridin-3-yl)ethyl) pyrrolidine-3-carboxamide]","SUMO E1 activity (luminescence), ranking among the 11 compounds",SUMO E1 ligase protein,largest effects; also recorded: highest
same,dose-dependent effect in SUMO E1 assays compared with control compound N106,SUMO E1 ligase protein,larger effects than the control compound N106
"CC(NC(=O)C1CC(=O)N(c2cccnc2)C1)c1cnn2ccccc12 (mixture of isomers) [Compound 9, 5-oxo-N-(1-(pyrazolo[1,5-a]pyridin-3-yl)ethyl)-1-(pyridin-3-yl) pyrrolidine-3-carboxamide]","SUMO E1 activity (luminescence), ranking among the 11 compounds",SUMO E1 ligase protein,largest effects; also recorded: highest
same,dose-dependent effect in SUMO E1 assays compared with control compound N106,SUMO E1 ligase protein,larger effects than the control compound N106
"CC(NC(=O)C1CC(=O)N(c2cnc3ccccc3c2)C1)c1cnn2ccccc12 (mixture of isomers) [Compound 11, 5-oxo-N-(1-(pyrazolo[1,5-a]pyridin-3-yl)ethyl)-1-(quinolin-3-yl) pyrrolidine-3-carboxamide]","SUMO E1 activity (luminescence), ranking among the 11 compounds",SUMO E1 ligase protein,largest effects; also recorded: highest
"C[C@@H](NC(=O)[C@@H]1CC(=O)N(c2ccc(C(=O)c3ccccc3)cc2)C1)c1cnn2ccccc12 [Compound 6-1, 1-(4-benzoylphenyl)-(R)-5-oxo-N—((R)-1-(pyrazolo[1,5-a]pyridin-3-yl)ethyl) pyrrolidine-3-carboxamide]",concentration at which the increase in developed force peaked,[1]; matured hvCTS,1 µM
same,contractility (overall conclusion),[1]; matured hvCTS,improved
same,effect on contraction time,[1]; matured hvCTS,did not show any significant difference
same,effect on passive tension,[1]; matured hvCTS,did not show any significant difference
same,effect on developed force,[1],positive inotropic effects; also recorded: concentration-dependent increase
same,effect on relaxation time,[1]; matured hvCTS,did not show any significant difference
"C[C@H](NC(=O)[C@H]1CC(=O)N(c2ccc(C(=O)c3ccccc3)cc2)C1)c1cnn2ccccc12 [Compound 6-2, 1-(4-benzoylphenyl)-(S)-5-oxo-N—((S)-1-(pyrazolo[1,5-a]pyridin-3-yl)ethyl) pyrrolidine-3-carboxamide]",concentration at which the increase in developed force peaked,[1]; matured hvCTS,1 µM
same,contractility (overall conclusion),[1]; matured hvCTS,improved
same,effect on contraction time,[1]; matured hvCTS,did not show any significant difference
same,effect on passive tension,[1]; matured hvCTS,did not show any significant difference
same,effect on developed force,[1],positive inotropic effects; also recorded: concentration-dependent increase
same,effect on relaxation time,[1]; matured hvCTS,did not show any significant difference
"C[C@@H](NC(=O)[C@@H]1CC(=O)N(c2cccnc2)C1)c1cnn2ccccc12 [Compound 9-1, (R)-5-oxo-N—((R)-1-(pyrazolo[1,5-a]pyridin-3-yl)ethyl)-1-(pyridin-3-yl) pyrrolidine-3-carboxamide]",effect on relaxation time,[1]; matured hvCTS,decrease in relaxation time that was dose dependent
"C[C@H](NC(=O)[C@H]1CC(=O)N(c2cccnc2)C1)c1cnn2ccccc12 [Compound 9-2, (S)-5-oxo-N—((S)-1-(pyrazolo[1,5-a]pyridin-3-yl)ethyl)-1-(pyridin-3-yl) pyrrolidine-3-carboxamide]",effect on relaxation time,[1]; matured hvCTS,decrease in relaxation time that was dose dependent
"C[C@H](NC(=O)[C@@H]1CC(=O)N(c2cccnc2)C1)c1cnn2ccccc12 [Compound 9-3, (R)-5-oxo-N—((S)-1-(pyrazolo[1,5-a]pyridin-3-yl)ethyl)-1-(pyridin-3-yl) pyrrolidine-3-carboxamide]",contractile kinetics (overall conclusion),[1]; matured hvCTS,improved
same,effect on relaxation time,[1]; matured hvCTS,decrease in relaxation time that was dose dependent
same,decrease in relaxation time,"[1]; matured hvCTS, at 10 μM",15%
"C[C@@H](NC(=O)[C@H]1CC(=O)N(c2cccnc2)C1)c1cnn2ccccc12 [Compound 9-4, (S)-5-oxo-N—((R)-1-(pyrazolo[1,5-a]pyridin-3-yl)ethyl)-1-(pyridin-3-yl) pyrrolidine-3-carboxamide]",inhibition at 1 µM,"[1]; Homo sapiens, 10 min, matured hvCTS, at 1 μM, read-out: maximum decrease in developed force",10%
same,effect on developed force,[1],small but significant dose-dependent decrease
same,effect on relaxation time,[1]; matured hvCTS,decrease in relaxation time that was dose dependent
"COc1ccc(-c2nnc(Nc3nc4c(OC)cccc4s3)o2)cc1 [Compound N106, N-(4-methoxybenzo[d]thiazol-2-yl)-5-(4-methoxyphenyl)-1,3,4-oxadiazol-2-amine]",half-life in vivo,[2],too short
